Values of other authors in patent publication US20080207756A1, “Bio-absorbable oil suspension” (ATRIUM MEDICAL CORPORATION, priority 2007, published 2008).
Structures can show the parent of a compound that is named as a salt.

Details: liquid Bupivacaine HCL without epinephrine

- half life: 2 to 3 h
SMILES: CCCCN1CCCCC1C(=O)Nc1c(C)cccc1C (stereo not shown) [Bupivacaine HCL]
